Where a name gives a salt, the structure may show the parent alone.
The compounds below were run against T1, HCV polymerase (Hepatitis C virus genotype 1b, UniProt P26663) (assay: biochemical).
T1 construct: a region encoding NS5B (J Virol 1991 March, 65(3), 1105-13, 544 amino acids after deletion of 47 amino acids on the C-terminal); 6xHis (C); made in house; host or cells: Escherichia coli
Set-up: species or system HCV BK strain
Procedure, shortened: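 Recombinant HCV BK-strain NS5B (C-terminal 47 aa deleted, His6-tagged, E. coli), 0.5 μg/ml, run with 5 μg/ml in vitro-transcribed RNA template (polyU/3′X), ATP/GTP/CTP 50 μM, UTP 2 μM plus [3H]UTP, pH 7.5, 25° C, 90 min. TCA-precipitated RNA counted by scintillation; IC50 from activity with vs without compound.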

T1 sequence (P26663 2420-2963): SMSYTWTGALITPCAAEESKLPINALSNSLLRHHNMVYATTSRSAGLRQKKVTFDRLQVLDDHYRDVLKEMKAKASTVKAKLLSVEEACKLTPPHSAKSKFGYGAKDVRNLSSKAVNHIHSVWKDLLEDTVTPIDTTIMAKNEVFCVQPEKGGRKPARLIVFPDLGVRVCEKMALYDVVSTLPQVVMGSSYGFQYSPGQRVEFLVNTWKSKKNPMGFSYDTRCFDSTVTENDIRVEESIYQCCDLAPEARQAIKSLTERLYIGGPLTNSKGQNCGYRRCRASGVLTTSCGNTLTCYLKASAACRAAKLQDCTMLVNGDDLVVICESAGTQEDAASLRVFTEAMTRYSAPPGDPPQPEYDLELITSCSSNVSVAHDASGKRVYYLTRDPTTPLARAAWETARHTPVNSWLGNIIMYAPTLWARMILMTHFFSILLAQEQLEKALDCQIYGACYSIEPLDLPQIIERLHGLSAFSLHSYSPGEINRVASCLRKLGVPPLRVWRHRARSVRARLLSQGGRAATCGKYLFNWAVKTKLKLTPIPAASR

Structure (SMILES)	IC50
COC(=O)Cn1c(C(C)(C)NC(=O)c2ccc3c(C4CCCCC4)c4n(c3c2)CCOc2ccccc2-4)nc(C)c1C [Example 2-264, methyl (2-{1-[(12-cyclohexyl-6,7-dihydro-5-oxa-7a-azadibenzo[a,e]azulene-9-carbonyl)amino]-1-methylethyl}-4,5-dimethylimidazol-1-yl)acetate]	< 100 nM
Cc1nc(C(C)(C)NC(=O)c2ccc3c(C4CCCCC4)c4n(c3c2)CCOc2ccccc2-4)n(CC(=O)O)c1C [Example 2-265, (2-{1-[(12-cyclohexyl-6,7-dihydro-5-oxa-7a-azadibenzo[a,e]azulene-9-carbonyl)amino]-1-methylethyl}-4,5-dimethylimidazol-1-yl)acetic acid]	100 to 1000 nM
COC(=O)c1ccc2nc(NC(=O)c3ccc4c(C5CCCCC5)c5n(c4c3)CCOc3ccccc3-5)[nH]c2c1 [Example 2-266, methyl 2-[(12-cyclohexyl-6,7-dihydro-5-oxa-7a-azadibenzo[a,e]azulene-9-carbonyl)amino]-3H-benzimidazole-5-carboxylate]	100 to 1000 nM
O=C(Nc1nc2ccccc2[nH]1)c1ccc2c(C3CCCCC3)c3n(c2c1)CCOc1ccccc1-3 [Example 2-267, N-(1H-benzimidazol-2-yl)-12-cyclohexyl-6,7-dihydro-5-oxa-7a-azadibenzo[a,e]azulene-9-carboxamide]	100 to 1000 nM
O=C(O)c1ccc2nc(NC(=O)c3ccc4c(C5CCCCC5)c5n(c4c3)CCOc3ccccc3-5)[nH]c2c1 [Example 2-268, 2-[(12-cyclohexyl-6,7-dihydro-5-oxa-7a-azadibenzo[a,e]azulene-9-carbonyl)amino]-3H-benzimidazole-5-carboxylic acid]	100 to 1000 nM
CC(C)(NC(=O)c1ccc2c(C3CCCCC3)c3n(c2c1)CCOc1ccccc1-3)c1nc2ccc(C#N)cc2[nH]1 [Example 2-269, N-[1-(6-cyano-1H-benzimidazol-2-yl)-1-methylethyl]-12-cyclohexyl-6,7-dihydro-5-oxa-7a-azadibenzo[a,e]azulene-9-carboxamide]	< 100 nM
COC(=O)[C@@H](NC(=O)c1ccc2c(C3CCCCC3)c3n(c2c1)CCOc1cc(OC)ccc1-3)c1ccc(O)cc1 [Example 2-270, methyl (S)-2-[(12-cyclohexyl-3-methoxy-6,7-dihydro-5-oxa-7a-azadibenzo[a,e]azulene-9-carbonyl)amino]-2-(4-hydroxyphenyl)acetate]	< 100 nM
COC(=O)[C@H](NC(=O)c1ccc2c(C3CCCCC3)c3n(c2c1)CCOc1cc(OC)ccc1-3)c1ccc(O)cc1 [Example 2-271, methyl (R)-2-[(12-cyclohexyl-3-methoxy-6,7-dihydro-5-oxa-7a-azadibenzo[a,e]azulene-9-carbonyl)amino]-2-(4-hydroxyphenyl)acetate]	< 100 nM
CCN(CCN1CCC(OC)CC1)c1cccc2c1OCCn1c-2c(C2CCCCC2)c2ccc(C(=O)O)cc21 [Example 2-272, 12-cyclohexyl-4-{N-ethyl-N-[2-(4-methoxypiperidin-1-yl)ethyl]amino}-6,7-dihydro-5-oxa-7a-azadibenzo[a,e]azulene-9-carboxylic acid dihydrochloride]	< 100 nM
O=C(O)c1ccc2c(C3CCCCC3)c3n(c2c1)CCOc1c(-c2ccccc2)cccc1-3 [Example 2-273, 12-cyclohexyl-4-phenyl-6,7-dihydro-5-oxa-7a-azadibenzo[a,e]azulene-9-carboxylic acid]	< 100 nM
CCN(CCN1CCCC(COC)C1)c1cccc2c1OCCn1c-2c(C2CCCCC2)c2ccc(C(=O)O)cc21 (stereo not drawn) [Example 2-274, 12-cyclohexyl-4-{N-ethyl-N-[2-(3-methoxymethylpiperidin-1-yl)ethyl]amino}-6,7-dihydro-5-oxa-7a-azadibenzo[a,e]azulene-9-carboxylic acid dihydrochloride]	< 100 nM
CCN(CCN1CCC(COC)CC1)c1cccc2c1OCCn1c-2c(C2CCCCC2)c2ccc(C(=O)O)cc21 [Example 2-275, 12-cyclohexyl-4-{N-ethyl-N-[2-(4-methoxymethylpiperidin-1-yl)ethyl]amino}-6,7-dihydro-5-oxa-7a-azadibenzo[a,e]azulene-9-carboxylic acid dihydrochloride]	< 100 nM
CCCN(CCN1CCCCC1)c1cccc2c1OCCn1c-2c(C2CCCCC2)c2ccc(C(=O)NC(C)(C)C(=O)O)cc21 [Example 2-276, 2-[(12-cyclohexyl-4-{N-[2-(piperidin-1-yl)ethyl]-N-propylamino}-6,7-dihydro-5-oxa-7a-azadibenzo[a,e]azulene-9-carbonyl)amino]-2-methylpropionic acid]	< 100 nM
O=C(O)c1ccc2c(C3CCCCC3)c3n(c2c1)CCOc1c-3cccc1N(CC(=O)N1CCCCC1)CC(=O)N1CCCCC1 [Example 2-277, 4-{bis[2-oxo-2-(piperidin-1-yl)ethyl]amino}-12-cyclohexyl-6,7-dihydro-5-oxa-7a-azadibenzo[a,e]azulene-9-carboxylic acid]	< 100 nM
O=C(O)c1ccc2c(C3CCCCC3)c3n(c2c1)CCOc1c-3cccc1N(CCN1CCCCC1)CCN1CCCCC1 [Example 2-278, 4-{bis[2-(piperidin-1-yl)ethyl]amino}-12-cyclohexyl-6,7-dihydro-5-oxa-7a-azadibenzo[a,e]azulene-9-carboxylic acid dihydrochloride]	< 100 nM
COC(=O)[C@H](Cc1ccc(F)cc1)NC(=O)c1ccc2c(C3CCCCC3)c3n(c2c1)CCOc1cc(OC)ccc1-3 [Example 2-279, methyl (S)-2-[(12-cyclohexyl-3-methoxy-6,7-dihydro-5-oxa-7a-azadibenzo[a,e]azulene-9-carbonyl)amino]-3-(4-fluorophenyl)propionate]	< 100 nM
COC(=O)[C@H](Cc1c[nH]cn1)NC(=O)c1ccc2c(C3CCCCC3)c3n(c2c1)CCOc1cc(OC)ccc1-3 [Example 2-280, methyl (S)-2-[(12-cyclohexyl-3-methoxy-6,7-dihydro-5-oxa-7a-azadibenzo[a,e]azulene-9-carbonyl)amino]-3-(1H-imidazol-4-yl)propionate]	< 100 nM
COC(=O)[C@@H]1Cc2ccc(O)cc2CN1C(=O)c1ccc2c(C3CCCCC3)c3n(c2c1)CCOc1cc(OC)ccc1-3 [Example 2-281, methyl (S)-2-(12-cyclohexyl-3-methoxy-6,7-dihydro-5-oxa-7a-azadibenzo[a,e]azulene-9-carbonyl)-7-hydroxy-1,2,3,4-tetrahydroisoquinoline-3-carboxylate]	100 to 1000 nM
COC(=O)c1cc2[nH]c(C(C)(C)NC(=O)c3ccc4c(C5CCCCC5)c5n(c4c3)CCOc3ccccc3-5)nc2cc1C [Example 2-282, methyl 2-{1-[(12-cyclohexyl-6,7-dihydro-5-oxa-7a-azadibenzo[a,e]azulene-9-carbonyl)amino]-1-methylethyl}-6-methyl-3H-benzimidazole-5-carboxylate]	< 100 nM
Cc1cc2nc(C(C)(C)NC(=O)c3ccc4c(C5CCCCC5)c5n(c4c3)CCOc3ccccc3-5)[nH]c2cc1C(=O)O [Example 2-283]	< 100 nM
COC(=O)Cn1c(C(C)(C)NC(=O)c2ccc3c(C4CCCCC4)c4n(c3c2)CCOc2ccccc2-4)nc2ccccc21 [Example 2-284, methyl (2-{1-[(12-cyclohexyl-6,7-dihydro-5-oxa-7a-azadibenzo[a,e]azulene-9-carbonyl)amino]-1-methylethyl}benzimidazol-1-yl)acetate]	< 100 nM
